Source: ChEMBL document CHEMBL2176941, “Kinetic profile of amyloid formation in the presence of an aromatic inhibitor by nuclear magnetic resonance” (ACS Med Chem Lett, 2012)
Activity calls are given as the source filed them. No cut-off for these calls is given here.

How the values were obtained:
[1] = target: T1, Islet amyloid polypeptide (Homo sapiens) (UniProt P10997); assay: Inhibition of IAPP assembly at 1:1 protein to compound ratio after 29 days by NMR analysis
T1 sequence (whole entry): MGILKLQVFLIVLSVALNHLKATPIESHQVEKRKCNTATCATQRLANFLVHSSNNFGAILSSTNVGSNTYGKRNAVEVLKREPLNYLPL

[2] = target: T1, Islet amyloid polypeptide (Homo sapiens); assay: Inhibition of IAPP assembly assessed as nucleation period at 1:1 protein to compound ratio (reference value: 15.3 days)
[3] = target: T1, Islet amyloid polypeptide (Homo sapiens); assay: Inhibition of IAPP assembly at 1:1 protein to compound ratio after 18 to 31 days by NMR analysis
[4] = Inhibition of IAPP (11 to 25) S20G mutant assembly at 1:1 protein to compound ratio after 1 to 8 days by TOCSY spectra analysis
[5] = target: T1, Islet amyloid polypeptide (Homo sapiens); assay: Inhibition of IAPP assembly at 1:1 protein to compound ratio after 1 to 5 days by circular dichroism spectra analysis
[6] = target: T1, Islet amyloid polypeptide (Homo sapiens); assay: Activity of IAPP assessed as maximal rate of self-assembly at 1:1 protein to compound ratio by NMR analysis (reference value: 12.2/day)
[7] = target: T1, Islet amyloid polypeptide (Homo sapiens); assay: Inhibition of IAPP fibrillation at 1:1 protein to compound ratio after 44 days by transmission electron microscopy
[8] = target: T1, Islet amyloid polypeptide (Homo sapiens); assay: Inhibition of IAPP assembly assessed as prenucleation period at 1:1 protein to compound ratio by NMR analysis

inhibition [1]: inactive
TIME [2]: 290 h
inhibition [3]: Active
inhibition [4]: Active
inhibition [5]: Active
Activity [6]: 15.1 day⁻¹
inhibition [7]: inactive
TIME [8]: 408 h
Compound: COc1cc(/C=C/C(=O)CC(=O)/C=C/c2ccc(O)c(OC)c2)ccc1O
